Source: the supplement of paper PMC10307832

How the values were obtained:
Assay in all cases: relative viability (nuclei count vs DMSO), 5 days (fraction); higher = more cells survive
HCC-78 = tested on: HCC-78
In short: (§1)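 Lung cancer cell lines in 1536-well plates got either a single drug or a fixed anchor-drug dose together with five library-drug doses (not always all listed) in √10 steps, by pin tool, on the day after seeding. Nuclei were counted after 5 days, and relative viability is the treated-to-vehicle ratio of nuclei counts. Values are medians of duplicate plates.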

NCI-H23 = tested on: NCI-H23
In short: as §1

EMC-BAC-2 = tested on: EMC-BAC-2
In short: as §1

NCI-H1944 = tested on: NCI-H1944
In short: as §1

HCC-15 = tested on: HCC-15
In short: as §1

COR-L23 = tested on: COR-L23
In short: as §1

LC-2-ad = tested on: LC-2-ad
In short: as §1

A-427 = tested on: A-427
In short: as §1

NCI-H1993 = tested on: NCI-H1993
In short: as §1

NCI-H1793 = tested on: NCI-H1793
In short: as §1

NCI-H2009 = tested on: NCI-H2009
In short: as §1

HARA = tested on: HARA
In short: as §1

NCI-H2228 = tested on: NCI-H2228
In short: as §1

NCI-H2023 = tested on: NCI-H2023
In short: as §1

NCI-H1650 = tested on: NCI-H1650
In short: as §1

ChaGo-K-1 = tested on: ChaGo-K-1
In short: as §1

NCI-H838 = tested on: NCI-H838
In short: as §1

SK-LU-1 = tested on: SK-LU-1
In short: as §1

NCI-H2405 = tested on: NCI-H2405
In short: as §1

UMC-11 = tested on: UMC-11
In short: as §1

LK-2 = tested on: LK-2
In short: as §1

ABC-1 = tested on: ABC-1
In short: as §1

NCI-H1734 = tested on: NCI-H1734
In short: as §1

HCC-366 = tested on: HCC-366
In short: as §1

With `C[C@@H]1CN(CC(=O)Nc2ccc3c(c2)Cc2cccc(-c4cc(=O)cc(N5CCOCC5)o4)c2S3)C[C@H](C)O1` + COc1cccc2cc(-c3nc([C@H]4CC[C@H](C(=O)O)CC4)n4ncnc(N)c34)[nH]c12 [OSI-027] (partner 0.5 µM) the relative viability (HCC-78; first compound 0.04 µM) was 0.372, the relative viability (HCC-78; first compound 0.1265 µM) was 0.358 and the relative viability (HCC-78; first compound 0.4 µM) was 0.365. The relative viability (HCC-78; first compound 4 µM) was 0.384, the relative viability (NCI-H23; first compound 0.04 µM) was 0.732 and the relative viability (NCI-H23; first compound 0.1265 µM) was 0.572. It also gave a relative viability (NCI-H23; first compound 0.4 µM) of 0.558, a relative viability (NCI-H23; first compound 4 µM) of 0.426 and a relative viability (EMC-BAC-2; first compound 0.04 µM) of 0.392. The relative viability (EMC-BAC-2; first compound 0.1265 µM) was 0.429, the relative viability (EMC-BAC-2; first compound 0.4 µM) was 0.385 and the relative viability (EMC-BAC-2; first compound 4 µM) was 0.39. For the same compound, the relative viability (NCI-H1944; first compound 0.04 µM) was 0.386, the relative viability (NCI-H1944; first compound 0.1265 µM) was 0.475 and the relative viability (NCI-H1944; first compound 0.4 µM) was 0.389. It also gave a relative viability (NCI-H1944; first compound 4 µM) of 0.336, a relative viability (HCC-15; first compound 0.04 µM) of 0.76 and a relative viability (HCC-15; first compound 0.1265 µM) of 0.606. For the same compound, the relative viability (HCC-15; first compound 0.4 µM) was 0.485, the relative viability (HCC-15; first compound 4 µM) was 0.524 and the relative viability (COR-L23; first compound 0.04 µM) was 0.782. The relative viability (COR-L23; first compound 0.1265 µM) was 0.776, the relative viability (COR-L23; first compound 0.4 µM) was 0.73 and the relative viability (COR-L23; first compound 4 µM) was 0.717. The relative viability (LC-2-ad; first compound 0.04 µM) was 0.984, the relative viability (LC-2-ad; first compound 0.1265 µM) was 0.923 and the relative viability (LC-2-ad; first compound 0.4 µM) was 0.649. For the same compound, the relative viability (LC-2-ad; first compound 4 µM) was 0.656, the relative viability (A-427; first compound 0.04 µM) was 0.501 and the relative viability (A-427; first compound 0.1265 µM) was 0.53. The relative viability (A-427; first compound 0.4 µM) was 0.482, the relative viability (A-427; first compound 4 µM) was 0.575 and the relative viability (NCI-H1993; first compound 0.04 µM) was 0.578. For the same compound, the relative viability (NCI-H1993; first compound 0.1265 µM) was 0.603, the relative viability (NCI-H1993; first compound 0.4 µM) was 0.597 and the relative viability (NCI-H1993; first compound 4 µM) was 0.551. The relative viability (NCI-H1793; first compound 0.04 µM) was 0.256, the relative viability (NCI-H1793; first compound 0.1265 µM) was 0.272 and the relative viability (NCI-H1793; first compound 0.4 µM) was 0.247. It also gave a relative viability (NCI-H1793; first compound 4 µM) of 0.149, a relative viability (NCI-H2009; first compound 0.04 µM) of 0.712 and a relative viability (NCI-H2009; first compound 0.1265 µM) of 0.648. The relative viability (NCI-H2009; first compound 0.4 µM) was 0.613, the relative viability (NCI-H2009; first compound 4 µM) was 0.448 and the relative viability (HARA; first compound 0.1265 µM) was 0.499. It also gave a relative viability (HARA; first compound 0.4 µM) of 0.251, a relative viability (HARA; first compound 4 µM) of 0.412 and a relative viability (NCI-H2228; first compound 0.04 µM) of 0.659. It also gave a relative viability (NCI-H2228; first compound 0.1265 µM) of 0.705, a relative viability (NCI-H2228; first compound 0.4 µM) of 0.483 and a relative viability (NCI-H2228; first compound 4 µM) of 0.335. For the same compound, the relative viability (NCI-H2023; first compound 0.04 µM) was 0.518, the relative viability (NCI-H2023; first compound 0.1265 µM) was 0.387 and the relative viability (NCI-H2023; first compound 0.4 µM) was 0.306. For the same compound, the relative viability (NCI-H2023; first compound 4 µM) was 0.197, the relative viability (NCI-H1650; first compound 0.04 µM) was 0.761 and the relative viability (NCI-H1650; first compound 0.1265 µM) was 0.662. For the same compound, the relative viability (NCI-H1650; first compound 0.4 µM) was 0.591, the relative viability (NCI-H1650; first compound 4 µM) was 0.449 and the relative viability (ChaGo-K-1; first compound 0.04 µM) was 0.525. It also gave a relative viability (ChaGo-K-1; first compound 0.1265 µM) of 0.593, a relative viability (ChaGo-K-1; first compound 0.4 µM) of 0.531 and a relative viability (ChaGo-K-1; first compound 4 µM) of 0.533. The relative viability (NCI-H838; first compound 0.04 µM) was 0.401, the relative viability (NCI-H838; first compound 0.1265 µM) was 0.377 and the relative viability (NCI-H838; first compound 0.4 µM) was 0.312. The relative viability (NCI-H838; first compound 4 µM) was 0.288, the relative viability (SK-LU-1; first compound 0.04 µM) was 0.393 and the relative viability (SK-LU-1; first compound 0.1265 µM) was 0.4. It also gave a relative viability (SK-LU-1; first compound 0.4 µM) of 0.386, a relative viability (SK-LU-1; first compound 4 µM) of 0.237 and a relative viability (NCI-H2405; first compound 0.04 µM) of 0.632. The relative viability (NCI-H2405; first compound 0.1265 µM) was 0.699, the relative viability (NCI-H2405; first compound 0.4 µM) was 0.528 and the relative viability (NCI-H2405; first compound 4 µM) was 0.615. For the same compound, the relative viability (UMC-11; first compound 0.04 µM) was 0.51, the relative viability (UMC-11; first compound 0.1265 µM) was 0.464 and the relative viability (UMC-11; first compound 0.4 µM) was 0.472. The relative viability (UMC-11; first compound 4 µM) was 0.352, the relative viability (LK-2; first compound 0.04 µM) was 0.196 and the relative viability (LK-2; first compound 0.1265 µM) was 0.207. For the same compound, the relative viability (LK-2; first compound 0.4 µM) was 0.162, the relative viability (LK-2; first compound 4 µM) was 0.257 and the relative viability (ABC-1; first compound 0.1265 µM) was 0.541. For the same compound, the relative viability (ABC-1; first compound 0.4 µM) was 0.466, the relative viability (ABC-1; first compound 4 µM) was 0.439 and the relative viability (NCI-H1734; first compound 0.04 µM) was 0.655. The relative viability (NCI-H1734; first compound 0.1265 µM) was 0.598, the relative viability (NCI-H1734; first compound 0.4 µM) was 0.48 and the relative viability (NCI-H1734; first compound 4 µM) was 0.67. The relative viability (HCC-366; first compound 0.04 µM) was 1.04, the relative viability (HCC-366; first compound 0.1265 µM) was 0.867 and the relative viability (HCC-366; first compound 0.4 µM) was 0.648. The relative viability (HCC-366; first compound 4 µM) was 0.502.
